The subject of this test is Pseudomonas aeruginosa ("Ps. aeruginosa") ATCC 15442. Nature of the test: Antibacterial test, growth/no-growth (MIC) in liquid medium. It counts as cell-based. The note with it: within the concentration range tested, i.e., up to 2000 ppm. The procedure: The following materials and procedure were used to determine the potentiating effect of a diethanolamide with various biocides.
(1) Pseudomonas aeruginosa (“Ps. aeruginosa”) ATCC 15442 (a bacterium)
NaCl, 8.0 g; glucose, 1.0 g; tryptone, 1.0 g; DI water, 1.0 L.
5 ml of growth medium were suspended in test tubes, and the culture medium was autoclaved at 121° C. for 20 min. Biocide stock aqueous solutions were added in each tube to give the desired biocide-diethanolamide concentrations in parts per million. No biocide was added to the control tubes. All tubes were inoculated by adding 0.1 ml of inoculum to give a bacterial concentration of about 10^6 cells/ml (10^6 spores/ml for fungal test). After each addition, the tubes were shaken vigorously to mix the contents thoroughly. All inoculated tubes were placed at 37° C. for antibacterial test and at 28° C. for antifungal test. Bacterial growth was checked after 5-7 days and fungal growth was checked after 10-14 days.
The MIC of each biocide and diethanolamide acting alone and in combination was determined on a growth-no-growth basis. Tables 1-16 present both the lowest concentrations of each biocide and diethanolamide separately for which there was no growth, and the lowest concentration of biocide in combination with diethanolamide for which there was no growth. […]

Take “(RS)-1- 2-[(2,4-dichlorophenyl)-2-propyl-1,3-dioxalan-2ylmethyl]-1H-1,2,4-triazole [propiconazole]”: the antibacterial activity result is “does not have any antibacterial activity”.

The values above are taken from patent US6413531B1, “Potentiation of biocide activity using a diethanolamide” (Buckman Laboratories International, Inc., priority 1998, dated 2002).
